Each structure is given as a SMILES string.

In the first test the test system is HBV (encapsidated HBV DNA, HepG2.2.15 cells). The experiment in a line: HBV replication inhibition assay, BDNA assay in HepG2.2.15 cells. The format is cell-based. The note with it: Activity in BDNA-assay. Summed up:
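Encapsidated HBV DNA in DNase-treated, proteinase K-lysed supernatant was measured by branched DNA after 6 days' compound exposure, refreshed on day 3, of HepG2.2.15 cells in 0.5% DMSO. Signals normalized to DMSO-treated wells; EC50 from nonlinear regression of inhibition against log concentration.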
For orientation: EC50 means the concentration that produces a half-maximal response. As for `C[C@@H]1Cc2nn3c(c2CN1C(=O)Nc1ccc(F)c(C(F)(F)F)c1)C(=O)N(C)CC(F)(CO)C3` (single isomer, unassigned) [Compound 133_D2, (3R,8S*)-8-fluoro-N-(4-fluoro-3-(trifluoromethyl)phenyl)-8-(hydroxymethyl)-3,10-dimethyl-11-oxo-1,3,4,7,8,9,10,11-octahydro-2H-pyrido[4′,3′:3,4]pyrazolo[1,5-a][1,4]diazepine-2-carboxamide_D2], the EC50 is 1 to 100 nM.

On to `CCC(O)C1CN(C)C(=O)c2c3c(nn2C1)CCN(C(=O)Nc1ccc(F)c(C(F)(F)F)c1)C3` (single isomer, unassigned) [Compound 099_E4, (R*)—N-(4-fluoro-3-(trifluoromethyl)phenyl)-8-((R*)-1-hydroxypropyl)-10-methyl-11-oxo-1,3,4,7,8,9,10,11-octahydro-2H-pyrido[4′,3′:3,4]pyrazolo[1,5-a][1,4]diazepine-2-carboxamide], for which the EC50 is 100 to 500 nM.

`CCC(O)C1CN(C)C(=O)c2c3c(nn2C1)CC(C)N(C(=O)Nc1ccc(F)c(Br)c1)C3` [Compound 109_D2, (3R,8R*)—N-(3-bromo-4-fluorophenyl)-8-((R)-1-hydroxypropyl)-3,10-dimethyl-11-oxo-1,3,4,7,8,9,10,11-octahydro-2H-pyrido[4′,3′:3,4]pyrazolo[1,5-a][1,4]diazepine-2-carboxamide]: the EC50 was 1 to 100 nM.

Consider `C=CC(O)C1CN(C)C(=O)c2c3c(nn2C1)CC(C)N(C(=O)Nc1ccc(F)c(C#N)c1)C3` (single isomer, unassigned) [Compound 123_D1, (3R,8S*)—N-(3-cyano-4-fluorophenyl)-8-((R*)-1-hydroxyallyl)-3,10-dimethyl-11-oxo-1,3,4,7,8,9,10,11-octahydro-2H-pyrido[4′,3′:3,4]pyrazolo[1,5-a][1,4]diazepine-2-carboxamide], for which the EC50 lay within 1 to 100 nM.

As to `CN1CC(C(O)CCF)Cn2nc3c(c2C1=O)CN(C(=O)Nc1ccc(F)c(Cl)c1)CC3` (stereo not drawn) [Compound 115, N-(3-chloro-4-fluoro-phenyl)-8-(3-fluoro-1-hydroxy-propyl)-10-methyl-1-oxo-1,3,4,7,8,9-hexahydropyrido[2,3]pyrazolo[2,4-b][1,4]diazepine-2-carboxamide], the EC50 is 1 to 100 nM.

Staying with this test, now noted: Hepatitis B virus, HepG2.2.15, Activity in BDNA-assay.
Take `C[C@@H]1Cc2nn3c(c2CN1C(=O)Nc1cc(Cl)c(F)cc1F)C(=O)N(CC(F)F)CCC3` [Compound 078, (R)—N-(5-chloro-2,4-difluorophenyl)-10-(2,2-difluoroethyl)-3-methyl-11-oxo-1,3,4,7,8,9,10,11-octahydro-2H-pyrido[4′,3′:3,4]pyrazolo[1,5-a][1,4]diazepine-2-carboxamide]: the EC50 was 100 to 500 nM.

For the molecule `CN1CC(S(C)(=O)=O)Cn2nc3c(c2C1=O)CN(C(=O)Nc1ccc(F)c(Cl)c1)CC3` (stereo not drawn) [Compound 027, N-(3-chloro-4-fluoro-phenyl)-10-methyl-8-methylsulfonyl-11-oxo-1,3,4,7,8,9-hexahydropyrido[2,3]pyrazolo[2,4-b][1,4]diazepine-2-carboxamide], the EC50 was in the range of 1 to 100 nM.

In the case of `C[C@@H]1Cc2nn3c(c2CN1C(=O)Nc1ccc(F)c(C#N)c1)C(=O)N(C)C[C@@H](COCC(F)F)C3` [Compound 134_D1, (3R,8R)—N-(3-Cyano-4-fluorophenyl)-8-((2,2-difluoroethoxy)methyl)-3,10-dimethyl-11-oxo-1,3,4,7,8,9,10,11-octahydro-2H-pyrido[4′,3′:3,4]pyrazolo[1,5-a][1,4]diazepine-2-carboxamide], the EC50 fell in the range of 1 to 100 nM.

As for `CN1CC(CNCC(F)(F)F)Cn2nc3c(c2C1=O)CN(C(=O)Nc1ccc(F)c(C#N)c1)CC3` (stereo not drawn) [Compound 120, N-(3-cyano-4-fluorophenyl)-10-methyl-11-oxo-8-(((2,2,2-trifluoroethyl)amino)methyl)-1,3,4,7,8,9,10,11-octahydro-2H-pyrido[4′,3′:3,4]pyrazolo [1,5-a][1,4]diazepine-2-carboxamide], the EC50 lay within 1 to 100 nM.

Take `C[C@@H]1Cc2nn3c(c2CN1C(=O)Nc1ccc(F)c(C#N)c1F)C(=O)N(C)CC(CO)C3` (single isomer, unassigned) [Compound 088_D1, (3R,8S*)—N-(3-cyano-2,4-difluorophenyl)-8-(hydroxymethyl)-3,10-dimethyl-11-oxo-1,3,4,7,8,9,10,11-octahydro-2H-pyrido[4′,3′:3,4]pyrazolo[1,5-a][1,4]diazepine-2-carboxamide]: the EC50 was 1 to 100 nM.

With `CN1CC(CNCC(F)F)Cn2nc3c(c2C1=O)CN(C(=O)Nc1ccc(F)c(Br)c1)CC3` (single isomer, unassigned) [Compound 130_E1, (R*)—N-(3-bromo-4-fluorophenyl)-8-(((2,2-difluoroethyl)amino)methyl)-10-methyl-11-oxo-1,3,4,7,8,9,10,11-octahydro-2H-pyrido[4′,3′:3,4]pyrazolo[1,5-a][1,4]diazepine-2-carboxamide], the EC50 fell in the range of 1 to 100 nM.

`CN(C)CC1CN(C)C(=O)c2c3c(nn2C1)CCN(C(=O)Nc1ccc(F)c(Cl)c1)C3` (stereo not drawn) [Compound 065]: the EC50 lay in the range of 100 to 500 nM.

Take `CN(C)C(=O)C1CN(C)C(=O)c2c3c(nn2C1)CCN(C(=O)Nc1ccc(F)c(Cl)c1)C3` (stereo not drawn) [Compound 032, N2-(3-chloro-4-fluorophenyl)-N8,N8,10-trimethyl-11-oxo-1,3,4,7,8,9,10,11-octahydro-2H-pyrido[4′,3′:3,4]pyrazolo [1,5-a][1,4]diazepine-2,8-dicarboxamide]: the EC50 is 100 to 500 nM.

On to `C[C@@H]1Cc2nn3c(c2CN1C(=O)Nc1ccc(F)c(C(F)(F)F)c1F)C(=O)N(C)CC(CO)C3` (single isomer, unassigned) [Compound 083_D1, (3R,8S*)—N-(2,4-difluoro-3-(trifluoromethyl)phenyl)-8-(hydroxymethyl)-3,10-dimethyl-11-oxo-1,3,4,7,8,9,10,11-octahydro-2H-pyrido[4′,3′:3,4]pyrazolo[1,5-a][1,4] diazepine-2-carboxamide], for which the EC50 lay within 1 to 100 nM.

Turning to `CN1CC(CN2CCCCC2)Cn2nc3c(c2C1=O)CN(C(=O)Nc1ccc(F)c(Cl)c1)CC3` (stereo not drawn) [Compound 064, N-(3-chloro-4-fluorophenyl)-10-methyl-11-oxo-8-(piperidin-1-ylmethyl)-1,3,4,7,8,9,10,11-octahydro-2H-pyrido[4′,3′:3,4]pyrazolo[1,5-a][1,4]diazepine-2-carboxamide], the half-maximal effective concentration (EC50) lay in the range of 100 to 500 nM.

`CN1CC(O)(CO)Cn2nc3c(c2C1=O)CN(C(=O)Nc1ccc(F)c(Cl)c1)CC3` (stereo not drawn) [Compound 003]: the EC50 is 500 to 1000 nM.

As to `C=C1CN(C)C(=O)c2c3c(nn2C1)CCN(C(=O)Nc1ccc(F)c(Cl)c1)C3` [Compound 001, N-(3-chloro-4-fluorophenyl)-10-methyl-8-methylene-11-oxo-1,3,4,7,8,9,10,11-octahydro-2H-pyrido[4′,3′:3,4]pyrazolo[1,5-a][1,4]diazepine-2-carboxamide], the EC50 fell in the range of 1 to 100 nM.

In the case of `CCC(O)C1CN(C)C(=O)c2c3c(nn2C1)CCN(C(=O)Nc1cc(F)c(F)c(F)c1F)C3` (single isomer, unassigned) [Compound 105_E1, (R*)-8-((S*)-1-hydroxypropyl)-10-methyl-11-oxo-N-(2,3,4,5-tetrafluorophenyl)-1,3,4,7,8,9,10,11-octahydro-2H-pyrido[4′,3′:3,4]pyrazolo[1,5-a][1,4]diazepine-2-carboxamide], the EC50 fell in the range of 1 to 100 nM.

For `COC1CN(C)C(=O)c2c3c(nn2C1)CCN(C(=O)Nc1ccc(F)c(Cl)c1)C3` (single isomer, unassigned) [Compound 016B, (R*)—N-(3-chloro-4-fluorophenyl)-8-methoxy-10-methyl-11-oxo-3,4,8,9,10,11-hexahydro-1H-pyrido[4′,3′:3,4]pyrazolo[1,5-a][1,4]diazepine-2 (7H)-carboxamide], the concentration giving a half-maximal response (EC50) was in the range of 1 to 100 nM.

As for `CN1CC(C(F)F)Cn2nc3c(c2C1=O)CN(C(=O)Nc1ccc(F)c(Cl)c1)CC3` (stereo not drawn) [Compound 037, N-(3-chloro-4-fluorophenyl)-8-(difluoromethyl)-10-methyl-11-oxo-1,3,4,7,8,9,10,11-octahydro-2H-pyrido[4′,3′:3,4]pyrazolo[1,5-a][1,4]diazepine-2-carboxamide], the EC50 fell in the range of 1 to 100 nM.

In the case of `O=C(Nc1ccc(F)c(Cl)c1)N1CCc2nn3c(c2C1)C(=O)N(CC(F)(F)F)CC(CO)C3` (stereo not drawn) [Compound 051, N-(3-chloro-4-fluorophenyl)-8-(hydroxymethyl)-11-oxo-10-(2,2,2-trifluoroethyl)-1,3,4,7,8,9,10,11-octahydro-2H-pyrido[4′,3′: 3,4]pyrazolo[1,5-a][1,4]diazepine-2-carboxamide], the EC50 was in the range of 1 to 100 nM.

With `C[C@@H]1Cc2nn3c(c2CN1C(=O)Nc1ccc(F)c(Cl)c1)C(=O)N(C)CC(C)(F)C3` (single isomer, unassigned) [Compound 079_D1, (3R,8R*)—N-(3-chloro-4-fluorophenyl)-8-fluoro-3,8,10-trimethyl-11-oxo-1,3,4,7,8,9,10,11-octahydro-2H-pyrido[4′,3′:3,4]pyrazolo[1,5-a][1,4]diazepine-2-carboxamide], the EC50 was 1 to 100 nM.

Turning to `CN1CC([S+](C)[O-])Cn2nc3c(c2C1=O)CN(C(=O)Nc1ccc(F)c(Cl)c1)CC3` (single isomer, unassigned) [Compound 026A, N-(3-chloro-4-fluoro-phenyl)-10-methyl-8-methylsulfinyl-11-oxo-1,3,4,7,8,9-hexahydropyrido[2,3]pyrazolo[2,4-b][1,4]diazepine-2-carboxamide], the EC50 was greater than 1000 nM.

On to `CN1CC(F)(F)Cn2nc3c(c2C1=O)CN(C(=O)Nc1ccc(F)c(Cl)c1)CC3` [Compound 005, N-(3-chloro-4-fluorophenyl)-8,8-difluoro-10-methyl-11-oxo-1,3,4,7,8,9,10,11-octahydro-2H-pyrido[4′,3′:3,4]pyrazolo[1,5-a][1,4]diazepine-2-carboxamide], for which the EC50 lay within 1 to 100 nM.

These data come from patent US10975077B2 (Novira Therapeutics, Inc., priority 2016, dated 2021).
